In ChEMBL document CHEMBL1201862, “PubChem BioAssay data set” (2004):
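Cultured in 96-well plates, cells were exposed to test compound for 48 hours across five concentrations. Abbreviation: GI50, concentration required for 50% inhibition of growth.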 Calls of active or inactive are those of the source. No stated cut-off is given here; in the data, active = GI50 up to about 1.1 µM and inactive = higher.

Experiments:
Assay in all cases: inhibition of tumour cell growth, NCI panel, 48 h
[1] = tested on: EKVX
[2] = tested on: HCT-116
[3] = tested on: HCT-15
[4] = tested on: HOP-62
[5] = tested on: HT-29
[6] = tested on: KM12
[7] = tested on: M14
[8] = tested on: NCI-H226
[9] = tested on: NCI-H23
[10] = tested on: NCI-H522
[11] = tested on: NCI/ADR-RES
[12] = tested on: SF-268
[13] = tested on: SF-295
[14] = tested on: SN12C
[15] = tested on: SNB-19
[16] = tested on: SW-620
[17] = tested on: T47D
[18] = tested on: TK-10
[19] = tested on: U-251

Row | SMILES | GI50 [1] | GI50 [2] | GI50 [3] [µM] | GI50 [4] | GI50 [5] | GI50 [6] | GI50 [7] | GI50 [8] | GI50 [9] | GI50 [10] | GI50 [11] | GI50 [12] | GI50 [13] | GI50 [14] | GI50 [15] | GI50 [16] | GI50 [17] | GI50 [18] | GI50 [19]
1 | CC(C)(C)OC(=O)NCCCCC1NC(=O)[C@@H]2Cc3c([nH]c4ccccc34)C(c3ccccc3)N2C1=O (stereo not given in full) | 44.9 µM (inactive) | 29.7 µM (inactive) | 31.1 | 30.3 µM (inactive) | 25.6 µM (inactive) | 18.9 µM (inactive) | 28.6 µM (inactive) | 63.7 µM (inactive) | 25.9 µM (inactive) | 23 µM (inactive) | 35.1 µM (inactive) | 14 µM (inactive) | 22 µM (inactive) | 28.8 µM (inactive) | 50.1 µM (inactive) | 54 µM (inactive) | 18 µM (inactive) | 35.2 µM (inactive) | 35.1 µM (inactive)
2 | COc1ccc(/C=N/n2c(Cc3ccccc3)n[nH]c2=O)c(OC)c1 | > 57.9 µM (inactive) | 26.2 µM (inactive) | > 100 | 20.9 µM (inactive) | 19.5 µM (inactive) | > 100 µM (inactive) | 51.8 µM (inactive) | 33.8 µM (inactive) | 29.4 µM (inactive) | > 52 µM (inactive) | 21.5 µM (inactive) | 15.5 µM (inactive) | 15.3 µM (inactive) | > 100 µM (inactive) | 28.2 µM (inactive) | > 85.9 µM (inactive) | > 100 µM (inactive) | 27.3 µM (inactive) | 22 µM (inactive)
3 | CC1=C(C)SC(=C2Sc3c(n(C)c(=O)n(C)c3=O)S2)S1 | > 100 µM (inactive) | 10.7 µM (inactive) | > 100 | 18.7 µM (inactive) | 76.9 µM (inactive) | > 100 µM (inactive) | > 100 µM (inactive) | 20 µM (inactive) | 34.4 µM (inactive) | 57.3 µM (inactive) | 55.3 µM (inactive) | 43.8 µM (inactive) | 28.7 µM (inactive) | 35 µM (inactive) | 32.3 µM (inactive) | > 100 µM (inactive) | > 100 µM (inactive) | 27.9 µM (inactive) | 4.14 µM (inactive)
4 | CC(C)C1OC(N)=C(C#N)C1(C#N)C#N (stereo not given) | 62.2 µM (inactive) | 26.3 µM (inactive) | > 10 | 44.4 µM (inactive) | 38.1 µM (inactive) | > 100 µM (inactive) | 60.7 µM (inactive) | > 100 µM (inactive) | 33.3 µM (inactive) | 34.6 µM (inactive) | 58.1 µM (inactive) | 44.2 µM (inactive) | > 100 µM (inactive) | 69.7 µM (inactive) | 46.8 µM (inactive) | 14.3 µM (inactive) | 67.3 µM (inactive) | 83.4 µM (inactive) | 54.1 µM (inactive)
5 | Cc1cccc2c(N)c3cccc(C(=O)NCC[N+](C)(C)Cc4ccc([N+](=O)[O-])s4)c3nc12 | 14.1 µM (inactive) | 3.83 µM (inactive) | 3.74 | 4.21 µM (inactive) | 4.07 µM (inactive) | 9.06 µM (inactive) | 16.5 µM (inactive) | 6.68 µM (inactive) | 4.51 µM (inactive) | 5.28 µM (inactive) | 43.8 µM (inactive) | 4.78 µM (inactive) | 9.64 µM (inactive) | 0.424 µM (active) | 3.22 µM (inactive) | 5.4 µM (inactive) | 13.6 µM (inactive) | 20.4 µM (inactive) | 2.91 µM (inactive)
6 | CCOC(=O)/C(=C\NCc1ccc2c(c1)OCO2)c1nc2ccccc2[nH]1 | > 100 µM (inactive) | 39.8 µM (inactive) | 44.9 | 71.3 µM (inactive) | 24.6 µM (inactive) | 42.7 µM (inactive) | 47.2 µM (inactive) | > 100 µM (inactive) | 25.6 µM (inactive) | 28.2 µM (inactive) | 60.3 µM (inactive) | 61.4 µM (inactive) | 53.5 µM (inactive) | > 100 µM (inactive) | 46.9 µM (inactive) | 98.2 µM (inactive) | 35.9 µM (inactive) | 22.8 µM (inactive) | 82 µM (inactive)
7 | NC(=S)NS(=O)(=O)c1ccc(F)cc1 | > 100 µM (inactive) | > 100 µM (inactive) | > 100 | > 100 µM (inactive) | > 100 µM (inactive) | > 100 µM (inactive) | > 100 µM (inactive) | > 100 µM (inactive) | > 100 µM (inactive) | > 100 µM (inactive) | > 100 µM (inactive) | > 100 µM (inactive) | > 100 µM (inactive) | > 100 µM (inactive) | > 100 µM (inactive) | > 100 µM (inactive) | > 100 µM (inactive) | > 100 µM (inactive) | > 100 µM (inactive)
8 | Oc1ccccc1CNCc1nc2ccccc2[nH]1 | 36.1 µM (inactive) | 37 µM (inactive) | 3.01 | 69 µM (inactive) | 0.495 µM (active) | 89.5 µM (inactive) | 86.3 µM (inactive) | 20.9 µM (inactive) | > 100 µM (inactive) | > 100 µM (inactive) | 15.9 µM (inactive) | > 100 µM (inactive) | 45.8 µM (inactive) | > 100 µM (inactive) | > 100 µM (inactive) | 55.3 µM (inactive) | > 100 µM (inactive) | 83 µM (inactive) | 41.5 µM (inactive)
9 | Oc1ccc(-c2nc(-c3cccnc3)c(-c3ccc(Cl)cc3)[nH]2)cc1O | 18 µM (inactive) | 11.7 µM (inactive) | 10.3 | 12.4 µM (inactive) | 14.6 µM (inactive) | 8.97 µM (inactive) | 13.6 µM (inactive) | 16.2 µM (inactive) | 11.7 µM (inactive) | 1.13 µM (inactive) | 14.1 µM (inactive) | 11.5 µM (inactive) | 16.2 µM (inactive) | 13.2 µM (inactive) | 13 µM (inactive) | 12.4 µM (inactive) | 11.4 µM (inactive) | 10.4 µM (inactive) | 11 µM (inactive)
10 | NC(=S)NN=C1Cc2ccccc2C1 | 42.3 µM (inactive) | > 100 µM (inactive) | > 100 | > 100 µM (inactive) | > 100 µM (inactive) | > 100 µM (inactive) | > 100 µM (inactive) | > 100 µM (inactive) | > 100 µM (inactive) | > 100 µM (inactive) | > 100 µM (inactive) | > 100 µM (inactive) | > 100 µM (inactive) | > 100 µM (inactive) | > 100 µM (inactive) | > 100 µM (inactive) | > 100 µM (inactive) | > 100 µM (inactive) | > 100 µM (inactive)
11 | O=C1NC(N2CCCC(CO)C2)=N/C1=C\c1ccccc1 (stereo not given) | > 100 µM (inactive) | > 100 µM (inactive) | > 100 | > 100 µM (inactive) | > 100 µM (inactive) | > 100 µM (inactive) | > 100 µM (inactive) | > 100 µM (inactive) | > 100 µM (inactive) | > 100 µM (inactive) | > 100 µM (inactive) | > 100 µM (inactive) | > 100 µM (inactive) | > 100 µM (inactive) | > 100 µM (inactive) | > 100 µM (inactive) | > 100 µM (inactive) | > 100 µM (inactive) | > 100 µM (inactive)
12 | COC(=O)/C=C\C(C#N)(C#N)/N=C/c1ccc(C)cc1 | 14.4 µM (inactive) | 1.76 µM (inactive) | 2.56 | 19.3 µM (inactive) | 3.8 µM (inactive) | 18 µM (inactive) | 2.01 µM (inactive) | 8.75 µM (inactive) | 5.57 µM (inactive) | 0.378 µM (active) | 3.1 µM (inactive) | 3.78 µM (inactive) | 25.2 µM (inactive) | 13.2 µM (inactive) | 19.5 µM (inactive) | 1.95 µM (inactive) | 1.79 µM (inactive) | 1.8 µM (inactive) | 13 µM (inactive)
13 | Oc1ccc2ccccc2c1-c1c(Nc2ccccc2)ccc2ccccc12 | 16.9 µM (inactive) | 11.6 µM (inactive) | > 38 | 16.1 µM (inactive) | 33.7 µM (inactive) | 17.9 µM (inactive) | 11.7 µM (inactive) | 21 µM (inactive) | 15.6 µM (inactive) | 15.8 µM (inactive) | > 34.7 µM (inactive) | 16.7 µM (inactive) | 16.8 µM (inactive) | 27 µM (inactive) | 18.5 µM (inactive) | 11.4 µM (inactive) | 18.8 µM (inactive) | 16.9 µM (inactive) | 21.8 µM (inactive)
14 | Oc1nc(-c2cccc(F)c2)nc2ccccc12 | > 67.3 µM (inactive) | 27.2 µM (inactive) | > 100 | 22.5 µM (inactive) | > 100 µM (inactive) | > 79.6 µM (inactive) | 62.1 µM (inactive) | > 100 µM (inactive) | 32.5 µM (inactive) | 43.9 µM (inactive) | 45.5 µM (inactive) | 27.1 µM (inactive) | 39.4 µM (inactive) | > 49.9 µM (inactive) | 19.9 µM (inactive) | > 87.7 µM (inactive) | > 100 µM (inactive) | 34.6 µM (inactive) | 36.5 µM (inactive)
15 | CCN(CC)C(=S)SNCc1ccc(S(N)(=O)=O)cc1 | 20.9 µM (inactive) | 13.2 µM (inactive) | 19.1 | 15.4 µM (inactive) | 8.47 µM (inactive) | 14.9 µM (inactive) | 10.7 µM (inactive) | > 38.9 µM (inactive) | 19.3 µM (inactive) | 0.0191 µM (active) | 18.9 µM (inactive) | 12.9 µM (inactive) | 9.06 µM (inactive) | 15.5 µM (inactive) | 16 µM (inactive) | 20 µM (inactive) | 16.4 µM (inactive) | 25 µM (inactive) | 11.2 µM (inactive)
